# Earlier results as cited in PMC3723878 (PLoS ONE, 2013).
# Target: T1, α1A-AR (Homo sapiens, UniProt P35348)
# T1 sequence (P35348 1-466): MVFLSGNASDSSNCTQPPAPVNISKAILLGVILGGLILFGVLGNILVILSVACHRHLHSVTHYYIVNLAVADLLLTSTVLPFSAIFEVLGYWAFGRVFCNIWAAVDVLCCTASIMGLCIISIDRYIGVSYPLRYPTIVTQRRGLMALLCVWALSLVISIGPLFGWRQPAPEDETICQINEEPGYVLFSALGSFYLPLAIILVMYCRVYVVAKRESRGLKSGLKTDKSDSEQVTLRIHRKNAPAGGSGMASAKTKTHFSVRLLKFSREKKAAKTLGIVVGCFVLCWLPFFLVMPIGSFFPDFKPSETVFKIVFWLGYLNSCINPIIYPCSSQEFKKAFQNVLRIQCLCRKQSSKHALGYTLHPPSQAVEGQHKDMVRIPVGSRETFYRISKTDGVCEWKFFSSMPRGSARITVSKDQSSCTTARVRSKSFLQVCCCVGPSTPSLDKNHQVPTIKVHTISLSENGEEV
# Design: expressed in transfected cells; method as in PMID 20978120
# Conditions: CHO cells used for Ca^2+ release experiments; cited from earlier work
structure (smiles),measurement,value
O=C1c2ccccc2CCC1CNCCc1ccc(O)c([125I])c1 (stereo not shown) [125I-HEAT],pKD,9.2±0.09
